Test: xn = mol fraction of the nth substance listed
Conditions: Liquid, Vibrating tube method, x1 = 1

CCCCCCCCCC [decane] + CCCCCCCCCCCC
Conditions | mass density [kg/m3]
283.55 K, 5000 kPa | 742
283.56 K, 3000 kPa | 740
283.56 K, 20000 kPa | 752
283.56 K, 30000 kPa | 758
283.56 K, 40000 kPa | 763
283.56 K, 50000 kPa | 769
283.56 K, 60000 kPa | 774
283.56 K, 70000 kPa | 779
283.56 K, 80000 kPa | 783
283.56 K, 90000 kPa | 788
283.57 K, 1000 kPa | 739
283.57 K, 10000 kPa | 745
283.58 K, 100 kPa | 738
293.48 K, 100 kPa | 731
293.48 K, 1000 kPa | 731
293.49 K, 5000 kPa | 734
293.49 K, 10000 kPa | 738
293.49 K, 20000 kPa | 745
293.5 K, 30000 kPa | 751
293.5 K, 40000 kPa | 757
293.5 K, 50000 kPa | 763
293.5 K, 100000 kPa | 787
293.51 K, 60000 kPa | 768
293.51 K, 70000 kPa | 773
293.51 K, 80000 kPa | 778
293.51 K, 90000 kPa | 783
303.42 K, 100 kPa | 723
303.42 K, 1000 kPa | 724
303.42 K, 10000 kPa | 731
303.42 K, 30000 kPa | 745
303.42 K, 40000 kPa | 751
303.42 K, 70000 kPa | 768
303.42 K, 80010 kPa | 773
303.42 K, 90000 kPa | 777
303.43 K, 5000 kPa | 727
303.43 K, 20000 kPa | 738
303.43 K, 50000 kPa | 757
303.43 K, 60000 kPa | 762
303.43 K, 100000 kPa | 782
313.35 K, 100 kPa | 716
313.35 K, 1000 kPa | 717
313.35 K, 5000 kPa | 721
313.35 K, 40000 kPa | 746
313.36 K, 20000 kPa | 732
313.36 K, 50000 kPa | 752
313.36 K, 70000 kPa | 763
313.36 K, 80000 kPa | 768
313.36 K, 90000 kPa | 773
313.36 K, 100000 kPa | 777
313.37 K, 10000 kPa | 725
313.37 K, 30000 kPa | 739
313.37 K, 60000 kPa | 757
323.24 K, 100 kPa | 708
323.24 K, 1000 kPa | 709
323.24 K, 100000 kPa | 771
323.25 K, 5000 kPa | 712
323.25 K, 10000 kPa | 717
323.25 K, 20000 kPa | 725
323.25 K, 30000 kPa | 732
323.25 K, 40000 kPa | 739
323.25 K, 50000 kPa | 745
323.25 K, 60000 kPa | 751
323.25 K, 70000 kPa | 757
323.25 K, 80000 kPa | 762
323.25 K, 90000 kPa | 767
333.12 K, 5000 kPa | 705
333.12 K, 10000 kPa | 710
333.12 K, 20000 kPa | 718
333.13 K, 100 kPa | 700
333.13 K, 1000 kPa | 701
333.13 K, 30000 kPa | 726
333.13 K, 80000 kPa | 757
333.13 K, 90000 kPa | 762
333.13 K, 100000 kPa | 767
333.14 K, 40000 kPa | 733
333.14 K, 50000 kPa | 740
333.14 K, 60000 kPa | 746
333.14 K, 70000 kPa | 751
343.01 K, 100 kPa | 693
343.01 K, 1000 kPa | 694
343.01 K, 10000 kPa | 703
343.01 K, 20000 kPa | 712
343.01 K, 30000 kPa | 720
343.01 K, 40000 kPa | 727
343.01 K, 50000 kPa | 734
343.01 K, 60000 kPa | 740
343.02 K, 5000 kPa | 698
343.02 K, 70000 kPa | 746
343.02 K, 80000 kPa | 752
343.02 K, 90000 kPa | 757
343.02 K, 100000 kPa | 762
352.87 K, 100 kPa | 686
352.87 K, 1000 kPa | 687
352.87 K, 5000 kPa | 691
352.88 K, 10000 kPa | 696
352.88 K, 20000 kPa | 706
352.88 K, 30000 kPa | 714
352.88 K, 40000 kPa | 722
352.88 K, 50000 kPa | 729
352.88 K, 60000 kPa | 735
352.89 K, 70000 kPa | 741
352.89 K, 80000 kPa | 747
352.89 K, 90000 kPa | 753
352.89 K, 100000 kPa | 758
362.69 K, 100 kPa | 677
362.69 K, 1000 kPa | 678
362.7 K, 5000 kPa | 683
362.7 K, 10000 kPa | 689
362.71 K, 20000 kPa | 699
362.71 K, 30000 kPa | 708
362.71 K, 40000 kPa | 716
362.71 K, 50000 kPa | 723
362.71 K, 60000 kPa | 730
362.72 K, 70000 kPa | 736
362.72 K, 80000 kPa | 742
362.72 K, 90000 kPa | 747
362.72 K, 100000 kPa | 753
